Values after ≈ are worked out from the molar mass of the structure shown. Active and inactive are the calls of the source. The calls are words filed in the database; no cut-off is given here. Where a SMILES comes first, the peptide text is derived from it. Bridges are numbered along the chain shown (N, C = ends). [ ]: non-standard residue; d: D form. The star is where a group is joined. Ileψ(thiazoline)Cys = CC[C@H](C)[C@H](N)C1=N[C@H](C(=O)*)CS1; dOrn = NCCC[C@@H](N)C(=O)O
Key:
Pseudomonas aeruginosa [1] = experiment: Antibacterial activity against Pseudomonas aeruginosa ATCC 27853 assessed as inhibition of bacterial growth incubated for 18 hrs by microbroth dilution assay; assay type: functional
Klebsiella pneumoniae = experiment: Antibacterial activity against Klebsiella pneumoniae ATCC 700603 assessed as inhibition of bacterial growth incubated for 18 hrs by microbroth dilution assay; assay type: functional
[2] = system: Staphylococcus epidermidis; experiment: Antibacterial activity against Staphylococcus epidermidis ATCC 12228 assessed as inhibition of bacterial growth incubated for 18 hrs by microbroth dilution assay; assay type: functional
Bacillus subtilis = experiment: Antibacterial activity against Bacillus subtilis ATCC 23857 assessed as inhibition of bacterial growth incubated for 18 hrs by microbroth dilution assay; assay type: functional
[3] = Hemolytic activity in Kunming mouse erythrocytes assessed as hemolysis incubated for 1 hr by multimode reader analysis; assay type: toxicity, cell-based; details: erythrocyte
[4] = Retention time of the compound by RP-HPLC analysis; assay type: physicochemical
Staphylococcus aureus = experiment: Antibacterial activity against Staphylococcus aureus ATCC 25923 assessed as inhibition of bacterial growth incubated for 18 hrs by microbroth dilution assay; assay type: functional
Escherichia coli = experiment: Antibacterial activity against Escherichia coli ATCC 25922 assessed as inhibition of bacterial growth incubated for 18 hrs by microbroth dilution assay; assay type: functional
[5] = Hemolytic activity in Kunming mouse erythrocytes assessed as hemolytic rate at 256 uM incubated for 1 hr by multimode reader analysis relative to control; assay type: toxicity, cell-based, Erythrocyte; details: read-out: Activity
Cell membrane [6] = experiment: Induction of cell membrane permeability in Staphylococcus aureus assessed as bacterial dissolve at 2 times MIC by SEM analysis; assay type: subcellular
Pseudomonas aeruginosa [7] = experiment: Induction of drug resistance in Pseudomonas aeruginosa ATCC 27853 assessed as fold increase in MIC incubated for 24 hrs and measured under 40 passages; assay type: functional
Cell membrane [8] = experiment: Induction of Cytoplasmic membrane depolarization in Staphylococcus aureus at 3.75 uM measured for every 10 mins by DiSC3(5) dye based fluorescence method

SMILES | MIC (Pseudomonas aeruginosa [1]) [µM] | MIC (Klebsiella pneumoniae) [µM] | MIC [2] [µM] | MIC (Bacillus subtilis) [µM] | MHC10 [3] [µM] | Retention_time [4] [min] | MIC (Staphylococcus aureus) [µM] | MIC (Escherichia coli) [µM] | hemolysis at 1 h, 256 µM [5] [%] | Activity (Cell membrane [6]) | fold change (FC) (Pseudomonas aeruginosa [7]) | Activity (Cell membrane [8])
NCCCC[C@H](NC(=O)[C@H](Cc1c[nH]c2ccccc12)NC(=O)[C@H](CCCCN)NC(=O)[C@H](Cc1c[nH]c2ccccc12)NC(=O)[C@H](CCCCN)NC(=O)CNC(=O)[C@H]1CCCN1C(=O)[C@H](CCCCN)NC(=O)[C@H](Cc1c[nH]c2ccccc12)NC(=O)[C@H](CCCCN)NC(=O)[C@H](Cc1c[nH]c2ccccc12)NC(=O)[C@@H](N)CCCCN)C(N)=O | 32 (≈ 53.9 µg/mL) | 64 (≈ 108 µg/mL) | 4 (≈ 6.74 µg/mL) | 2 (≈ 3.37 µg/mL) | > 256 | 12.66 | 32 (≈ 53.9 µg/mL) | 16 (≈ 27 µg/mL) | – | – | – | –
CC[C@H](C)[C@H](NC(=O)[C@H](CCCNC(=N)N)NC(=O)[C@@H](NC(=O)[C@H](CCCNC(=N)N)NC(=O)CNC(=O)[C@H]1CCCN1C(=O)[C@H](CCCNC(=N)N)NC(=O)[C@@H](NC(=O)[C@H](CCCNC(=N)N)NC(=O)[C@@H](NC(=O)[C@@H](N)CCCNC(=N)N)[C@@H](C)CC)[C@@H](C)CC)[C@@H](C)CC)C(=O)N[C@@H](CCCNC(=N)N)C(N)=O | 16 (≈ 25 µg/mL) | 32 (≈ 50 µg/mL) | 8 (≈ 12.5 µg/mL) | 4 (≈ 6.24 µg/mL) | > 256 | 11.367 | 32 (≈ 50 µg/mL) | 16 (≈ 25 µg/mL) | – | – | – | –
CC[C@H](C)[C@H](N)C(=O)N[C@@H](CCCNC(=N)N)C(=O)N[C@H](C(=O)N[C@@H](CCCNC(=N)N)C(=O)N1CCC[C@@H]1C(=O)NCC(=O)N[C@@H](CCCNC(=N)N)C(=O)N[C@H](C(=O)N[C@@H](CCCNC(=N)N)C(=O)N[C@H](C(N)=O)[C@@H](C)CC)[C@@H](C)CC)[C@@H](C)CC | 128 (≈ 160 µg/mL) | > 128 | 64 (≈ 79.9 µg/mL) | 32 (≈ 40 µg/mL) | > 256 | 12.103 | 128 (≈ 160 µg/mL) | 128 (≈ 160 µg/mL) | – | – | – | –
CO[C@H]1/C=C/O[C@@]2(C)Oc3c(C)c(O)c4c(O)c(c(/C=N/N5CCN(C)CC5)c(O)c4c3C2=O)NC(=O)/C(C)=C\C=C\[C@H](C)[C@H](O)[C@@H](C)[C@@H](O)[C@@H](C)[C@H](OC(C)=O)[C@@H]1C [RIFAMPIN] | 32 (≈ 26.3 µg/mL) | 64 (≈ 52.7 µg/mL) | < 1 | < 1 | – | – | < 1 | 16 (≈ 13.2 µg/mL) | – | – | – | –
N=C(N)NCCC[C@H](NC(=O)[C@H](Cc1ccccc1)NC(=O)[C@H](CCCNC(=N)N)NC(=O)[C@H](Cc1ccccc1)NC(=O)[C@H](CCCNC(=N)N)NC(=O)CNC(=O)[C@H]1CCCN1C(=O)[C@H](CCCNC(=N)N)NC(=O)[C@H](Cc1ccccc1)NC(=O)[C@H](CCCNC(=N)N)NC(=O)[C@H](Cc1ccccc1)NC(=O)[C@@H](N)CCCNC(=N)N)C(N)=O | 16 (≈ 27.2 µg/mL) | 16 (≈ 27.2 µg/mL) | 4 (≈ 6.79 µg/mL) | 4 (≈ 6.79 µg/mL) | > 256 | 12.628 | 16 (≈ 27.2 µg/mL) | 8 (≈ 13.6 µg/mL) | – | – | – | –
C[C@@H](O)[C@H]1C(=O)N2C(C(=O)O)=C(SCCNC=N)C[C@H]12 [IMIPENEM ANHYDROUS] | 16 (≈ 4.79 µg/mL) | < 1 | < 1 | < 1 | – | – | < 1 | < 1 | – | – | – | –
CC[C@H](C)[C@H](N)C(=O)N[C@@H](CCCNC(=N)N)C(=O)N[C@H](C(=O)N[C@@H](CCCNC(=N)N)C(=O)N[C@H](C(=O)N[C@@H](CCCNC(=N)N)C(=O)N1CCC[C@@H]1C(=O)NCC(=O)N[C@@H](CCCNC(=N)N)C(=O)N[C@H](C(=O)N[C@@H](CCCNC(=N)N)C(=O)N[C@H](C(=O)N[C@@H](CCCNC(=N)N)C(=O)N[C@H](C(N)=O)[C@@H](C)CC)[C@@H](C)CC)[C@@H](C)CC)[C@@H](C)CC)[C@@H](C)CC | 4 (≈ 7.15 µg/mL) | 16 (≈ 28.6 µg/mL) | 8 (≈ 14.3 µg/mL) | 2 (≈ 3.57 µg/mL) | 512 | 13.442 | 8 (≈ 14.3 µg/mL) | 16 (≈ 28.6 µg/mL) | 4.1 | – | – | –
CC[C@H](C)[C@H](N)C1=N[C@H](C(=O)N[C@@H](CC(C)C)C(=O)N[C@H](CCC(=O)O)C(=O)N[C@H](C(=O)N[C@H]2CCCCNC(=O)[C@H](CC(N)=O)NC(=O)[C@@H](CC(=O)O)NC(=O)[C@H](Cc3cnc[nH]3)NC(=O)[C@@H](Cc3ccccc3)NC(=O)[C@H]([C@@H](C)CC)NC(=O)[C@@H](CCCN)NC2=O)[C@@H](C)CC)CS1 [BACITRACIN] ({Ileψ(thiazoline)Cys}-L[dE]IK[dOrn]I[dF]H[dD]N; lactam 4-C) | > 128 | > 128 | 16 (≈ 22.8 µg/mL) | > 128 | – | – | 32 (≈ 45.5 µg/mL) | > 128 | – | – | – | –
O=C(O)c1cn(C2CC2)c2cc(N3CCNCC3)c(F)cc2c1=O [CIPROFLOXACIN] | 2 (≈ 0.663 µg/mL) | 8 (≈ 2.65 µg/mL) | 8 (≈ 2.65 µg/mL) | 2 (≈ 0.663 µg/mL) | – | – | 8 (≈ 2.65 µg/mL) | < 1 | – | Active | >128 | –
N=C(N)NCCC[C@H](NC(=O)CNC(=O)[C@H]1CCCN1C(=O)[C@H](CCCNC(=N)N)NC(=O)[C@H](Cc1ccccc1)NC(=O)[C@H](CCCNC(=N)N)NC(=O)[C@@H](N)Cc1ccccc1)C(=O)N[C@@H](Cc1ccccc1)C(=O)N[C@@H](CCCNC(=N)N)C(=O)N[C@@H](Cc1ccccc1)C(N)=O | 4 (≈ 5.54 µg/mL) | > 128 | 16 (≈ 22.2 µg/mL) | 8 (≈ 11.1 µg/mL) | > 256 | 13.555 | 32 (≈ 44.3 µg/mL) | 64 (≈ 88.6 µg/mL) | – | – | – | –
CC(C)[C@@H]1NC(=O)[C@H](C)OC(=O)[C@@H](C(C)C)NC(=O)[C@@H](C(C)C)OC(=O)[C@H](C(C)C)NC(=O)[C@H](C)OC(=O)[C@@H](C(C)C)NC(=O)[C@@H](C(C)C)OC(=O)[C@H](C(C)C)NC(=O)[C@H](C)OC(=O)[C@@H](C(C)C)NC(=O)[C@@H](C(C)C)OC1=O | – | – | – | – | – | – | – | – | – | – | – | Active
NCCCC[C@H](NC(=O)CNC(=O)[C@H]1CCCN1C(=O)[C@H](CCCCN)NC(=O)[C@H](Cc1c[nH]c2ccccc12)NC(=O)[C@H](CCCCN)NC(=O)[C@H](Cc1c[nH]c2ccccc12)NC(=O)[C@H](CCCCN)NC(=O)[C@@H](N)Cc1c[nH]c2ccccc12)C(=O)N[C@@H](Cc1c[nH]c2ccccc12)C(=O)N[C@@H](CCCCN)C(=O)N[C@@H](Cc1c[nH]c2ccccc12)C(=O)N[C@@H](CCCCN)C(=O)N[C@@H](Cc1c[nH]c2ccccc12)C(N)=O (H-WKWKWK[dP]GKWKWKW-NH2) | 4 (≈ 8.23 µg/mL) | 16 (≈ 32.9 µg/mL) | 4 (≈ 8.23 µg/mL) | 2 (≈ 4.12 µg/mL) | > 256 | 14.49 | 8 (≈ 16.5 µg/mL) | 8 (≈ 16.5 µg/mL) | – | – | – | –
NC[C@H]1O[C@H](O[C@H]2[C@H](O)[C@@H](O[C@H]3O[C@H](CO)[C@@H](O)[C@H](N)[C@H]3O)[C@H](N)C[C@@H]2N)[C@H](O)[C@@H](O)[C@@H]1O [KANAMYCIN] | > 128 | 64 (≈ 31 µg/mL) | > 128 | < 1 | – | – | < 1 | 8 (≈ 3.88 µg/mL) | – | – | – | –
NCCCC[C@H](NC(=O)CNC(=O)[C@H]1CCCN1C(=O)[C@H](CCCCN)NC(=O)[C@H](Cc1c[nH]c2ccccc12)NC(=O)[C@H](CCCCN)NC(=O)[C@@H](N)Cc1c[nH]c2ccccc12)C(=O)N[C@@H](Cc1c[nH]c2ccccc12)C(=O)N[C@@H](CCCCN)C(=O)N[C@@H](Cc1c[nH]c2ccccc12)C(N)=O (H-WKWK[dP]GKWKW-NH2) | 8 (≈ 11.4 µg/mL) | > 128 | 8 (≈ 11.4 µg/mL) | 8 (≈ 11.4 µg/mL) | > 256 | 13.817 | 64 (≈ 91.4 µg/mL) | 64 (≈ 91.4 µg/mL) | – | – | – | –
